Earlier results, collected in US20220160758A1, “ANTIVIRAL, ANTIBACTERIAL AND/OR ANTI FUNGAL COMPOSITIONS, APPLICATIONS AND THERAPY” (AVITAS BIO CORP., priority 2020, published 2022).

How the values were obtained:
bacteriophage PR4 = conditions: in vitro
[1] = system: gram-positive and gram-negative microorganisms; conditions: at the concentrations tested

Compound | inactivating the virus (bacteriophage) | inhibition of viral replication (bacteriophage PR4) | growth inhibition [1]
CCCCCCCC/C=C\CCCCCCCC(=O)O [oleic acid] | most effective | most effective | –
CCCCCC/C=C\CCCCCCCC(=O)O [palmitoleic acid] | – | most effective | –
CCCCC/C=C\C/C=C\C/C=C\C/C=C\CCCC(=O)O [arachidonic acid] | – | moderately effective | not inhibitory
